Experimental data as given in patent US11607446B2, “Personalized immunotherapy against several neuronal and brain tumors” (Immatics Biotechnologies GmbH, priority 2013, dated 2023).
Where no end group is shown, it is not given here.

Tests used:
[1] = test system: CD8+ T cells; experiment: In vitro immunogenicity of HLA-A*24 class I peptides: in vitro T-cell priming with aAPCs loaded with peptide/MHC complexes and anti-CD28 antibody, pMHC multimer readout; format: cell-based, human; settings: for Wells: share of positive wells in the in vitro immunogenicity experiments
Procedure: In order to obtain information regarding the immunogenicity of the TUMAPs of the present invention, we performed investigations using an in vitro T-cell priming assay based on repeated stimulations of CD8+ T cells with artificial antigen presenting cells (aAPCs) loaded with peptide/MHC complexes and anti-CD28 antibody.
Isolated CD8+ lymphocytes or PBMCs were incubated until use in T-cell medium (TCM) consisting of RPMI-Glutamax (Invitrogen, Karlsruhe, Germany) supplemented with 10% heat inactivated human AB serum (PAN-Biotech, Aidenbach, Germany), 100 U/ml Penicillin/100 μg/ml Streptomycin (Cambrex, Cologne, Germany), 1 mM sodium pyruvate (CC Pro, Oberdorla, Germany), 20 μg/ml Gentamycin (Cambrex). 2.5 ng/ml IL-7 (PromoCell, Heidelberg, Germany) and 10 U/ml IL-2 (Novartis Pharma, Nurnberg, Germany) were also added to the TCM at this step. Generation of pMHC/anti-CD28 coated beads, T-cell stimulations and readout was performed in a highly defined in vitro system using four different pMHC molecules per stimulation condition and 8 different pMHC molecules per readout condition. All pMHC complexes used for aAPC loading and cytometric readout were derived from UV-induced MHC ligand exchange with minor modifications. In order to determine the amount of pMHC monomer obtained by exchange we performed streptavidin-based sandwich ELISAs according to (Rodenko et al., 2006). The purified co-stimulatory mouse IgG2a anti human CD28 Ab 9.3 (Jung et al., 1987) was chemically biotinylated using Sulfo-N-hydroxysuccinimidobiotin as recommended by the manufacturer (Perbio, Bonn, Germany). Beads used were 5.6 μm diameter streptavidin coated polystyrene particles (Bangs Laboratories, Illinois, USA).
800.000 beads/200 μl were coated in 96-well plates in the presence of 4×12.5 ng different biotin-pMHC, washed and 600 ng biotin anti-CD28 were added subsequently in a volume of 200 μl. Stimulations were initiated in 96-well plates by co-incubating 1×10^6 CD8+ T cells with 2×10^5 washed coated beads in 200 μl TCM supplemented with 5 ng/ml IL-12 (PromoCell) for 3-4 days at 37° C. Half of the medium was then exchanged by fresh TCM supplemented with 80 U/ml IL-2 and incubating was continued for 3-4 days at 37° C. This stimulation cycle was performed for a total of three times, with 12 individual wells per condition For the pMHC multimer readout using 8 different pMHC molecules per condition, a two-dimensional combinatorial coding approach was used as previously described (Andersen et al., 2012) with minor modifications encompassing coupling to 5 different fluorochromes. Finally, multimeric analyses were performed by staining the cells with Live/dead near IR dye (Invitrogen, Karlsruhe, Germany), CD8-FITC antibody clone SK1 (BD, Heidelberg, Germany) and fluorescent pMHC multimers. For analysis, a BD LSRII SORP cytometer equipped with appropriate lasers and filters was used. Peptide specific cells were calculated as percentage of total CD8+ cells. Evaluation of multimeric analysis was done using the FlowJo software (Tree Star, Oregon, USA). In vitro priming of specific multimer+ CD8+ lymphocytes was detected by comparison to irrelevant control stimulations.
Exemplary flow cytometry results after TUMAP-specific multimer staining for two peptides of the invention are shown in FIG. 4 together with corresponding negative controls.

[2] = test system: CD8+ T cells; experiment: In vitro immunogenicity of HLA-A*02 class I peptides: in vitro T-cell priming with aAPCs loaded with peptide/MHC complexes and anti-CD28 antibody, pMHC multimer readout; format: cell-based, human; settings: HLA-A*02 peptides; for Donors (percentage in brackets) / Donors: healthy donors; for Donors: specific multimer+ CD8+ T-cell line after in vitro stimulation; for Wells: in vitro stimulated wells of healthy donors' CD8+ T cells, specific multimer+ readout
[3] = share of positive donors in the in vitro immunogenicity experiments, given as a class symbol

AFSPDSHYLLF (listed as Homo sapiens) [ITGA7-001]
Donors [1, 3]: ++ (20%-49 % = ++) | Wells ([1]; given as a class symbol): + (<20% = +)

AYLIDIKTI (listed as Homo sapiens) [IFT17-001]
Donors [1, 3]: +++ (50%-70% = +++) | Wells ([1]; given as a class symbol): + (<20% = +)

AYPRLSLSF (listed as Homo sapiens) [GAB-001]
Donors [1, 3]: ++ (20%-49 % = ++) | Wells ([1]; given as a class symbol): + (<20% = +)

AYSDGHFLF (listed as Homo sapiens) [TENM4-001]
Donors [1, 3]: ++ (20%-49 % = ++) | Wells ([1]; given as a class symbol): + (<20% = +)

AYVLRLETL (listed as Homo sapiens) [PNMA2-001]
Donors [1, 3]: ++ (20%-49 % = ++) | Wells ([1]; given as a class symbol): + (<20% = +)

CRB 1-001 (SYFENVHGF; listed as Homo sapiens)
Donors [1, 3]: ++ (20%-49 % = ++) | Wells ([1]; given as a class symbol): + (<20% = +)

EYIRALQQL (listed as Homo sapiens) [ASCL1-001]
Donors [1, 3]: ++ (20%-49 % = ++) | Wells ([1]; given as a class symbol): + (<20% = +)

EYMKALGVGF (listed as Homo sapiens) [FABP7-002]
Donors [1, 3]: ++ (20%-49 % = ++) | Wells ([1]; given as a class symbol): + (<20% = +)

FYGPQVNNI (listed as Homo sapiens) [WASL-001]
Donors [1, 3]: ++++ (>70% = ++++) | Wells ([1]; given as a class symbol): + (<20% = +)

HYKPTPLYF (listed as Homo sapiens) [SMC4-001]
Donors [1, 3]: ++ (20%-49 % = ++) | Wells ([1]; given as a class symbol): + (<20% = +)

IFTYIHLQL (listed as Homo sapiens) [LOC72839-001]
Donors [1, 3]: +++ (50%-70% = +++) | Wells ([1]; given as a class symbol): + (<20% = +)

IYGGHHAGF (listed as Homo sapiens) [OLIG2-001]
Donors [1, 3]: ++ (20%-49 % = ++) | Wells ([1]; given as a class symbol): + (<20% = +)

KFAEEFYSF (listed as Homo sapiens) [CDCA7L-001]
Donors [1, 3]: ++ (20%-49 % = ++) | Wells ([1]; given as a class symbol): + (<20% = +)

KYFDKVVTL (listed as Homo sapiens) [KIF7-001]
Donors [1, 3]: ++ (20%-49 % = ++) | Wells ([1]; given as a class symbol): + (<20% = +)

KYFGGVLEYF (listed as Homo sapiens) [RHOBTB3-001]
Donors [1, 3]: ++ (20%-49 % = ++) | Wells ([1]; given as a class symbol): + (<20% = +)

KYFSFPGEL (listed as Homo sapiens) [SLC-002]
Donors [1, 3]: ++ (20%-49 % = ++) | Wells ([1]; given as a class symbol): + (<20% = +)

KYNEFSVSL (listed as Homo sapiens) [HEATR1-001]
Donors [1, 3]: +++ (50%-70% = +++) | Wells ([1]; given as a class symbol): + (<20% = +)

KYNLINEYF (listed as Homo sapiens) [HS2-001]
Donors [1, 3]: ++ (20%-49 % = ++) | Wells ([1]; given as a class symbol): + (<20% = +)

LYIYPQSLNF (listed as Homo sapiens) [DOCK7-002]
Donors [1, 3]: +++ (50%-70% = +++) | Wells ([1]; given as a class symbol): + (<20% = +)

MYPYIYHVL (listed as Homo sapiens) [FAM120C-001]
Donors [1]: 100% | Donors [1, 3]: ++++ (>70% = ++++) | Wells ([1]; given as a class symbol): ++ (20%-49 % = ++)

NROB1-001 (AYLKGTVLF; listed as Homo sapiens)
Donors [1, 3]: ++ (20%-49 % = ++) | Wells ([1]; given as a class symbol): + (<20% = +)

NYIDNVGNLHF (listed as Homo sapiens) [LNX1-001]
Donors [1, 3]: ++ (20%-49 % = ++) | Wells ([1]; given as a class symbol): + (<20% = +)

NYKDLNGNVF (listed as Homo sapiens) [SSR1-001]
Donors [1, 3]: ++ (20%-49 % = ++) | Wells ([1]; given as a class symbol): + (<20% = +)

NYNDRYDEI (listed as Homo sapiens) [RPL-001]
Donors [1, 3]: ++ (20%-49 % = ++) | Wells ([1]; given as a class symbol): + (<20% = +)

NYQDTIGRL (listed as Homo sapiens) [VIM-002]
Donors [1, 3]: ++ (20%-49 % = ++) | Wells ([1]; given as a class symbol): + (<20% = +)

NYTSLLVTW (listed as Homo sapiens) [PTP-018]
Donors [1, 3]: ++++ (>70% = ++++) | Wells ([1]; given as a class symbol): + (<20% = +)

NYTSLLVTW^+4 (listed as Homo sapiens) [PTP-019]
Donors [1, 3]: ++ (20%-49 % = ++) | Wells ([1]; given as a class symbol): + (<20% = +)

PFAKPLPTF (listed as Homo sapiens) [EP4-001]
Donors [1, 3]: ++ (20%-49 % = ++) | Wells ([1]; given as a class symbol): + (<20% = +)

PYLDKFFAL (listed as Homo sapiens) [DOCK7-003]
Donors [1, 3]: ++ (20%-49 % = ++) | Wells ([1]; given as a class symbol): + (<20% = +)

PYNHQHEYF (listed as Homo sapiens) [FADS2-002]
Donors [1, 3]: ++++ (>70% = ++++) | Wells ([1]; given as a class symbol): + (<20% = +)

QWAPILANF (listed as Homo sapiens) [NKA-001]
Donors [1, 3]: ++ (20%-49 % = ++) | Wells ([1]; given as a class symbol): + (<20% = +)

QYQIIMTMI (listed as Homo sapiens) [FADS2-003]
Donors [1, 3]: +++ (50%-70% = +++) | Wells ([1]; given as a class symbol): + (<20% = +)

QYVFIHDTL (listed as Homo sapiens) [PTP-015]
Donors [1, 3]: ++ (20%-49 % = ++) | Wells ([1]; given as a class symbol): + (<20% = +)

RLGIKPESV (listed as Homo sapiens) [CSRP2-001]
Donors (percentage in brackets) [2]: 100% | Donors [2]: ++++ (>70% = ++++) | Wells [2]: ++ (20%-49 % = ++)

RLISKFDTV (listed as Homo sapiens) [EIF4E-001]
Donors [2]: +++ (50%-70% = +++) | Wells [2]: + (<20% = +)

RVADYIVKV [SLC10A4-002]
Donors [2]: +++ (50%-70% = +++) | Wells [2]: + (<20% = +)

RVAS*PTSGV (RVASPTSGV; not fully specified (residue 4); printed as RVAS*PTSGV; listed as Homo sapiens) [IRS-001]
Donors [2]: +++ (50%-70% = +++) | Wells [2]: + (<20% = +)

SLADFMQEV (listed as Homo sapiens) [CNOT1-002]
Donors [2]: ++ (20%-49 % = ++) | Wells [2]: + (<20% = +)

SLAERLFFQV (listed as Homo sapiens) [NAT8L-001]
Donors [2]: ++++ (>70% = ++++) | Wells [2]: + (<20% = +)

SLDTLMTYV (listed as Homo sapiens) [NLGN4Y-001]
Donors [2]: ++++ (>70% = ++++) | Wells [2]: + (<20% = +)

SLGLFLAQV (listed as Homo sapiens) [SCARA3-001]
Donors [2]: ++ (20%-49 % = ++) | Wells [2]: + (<20% = +)

SLWGGDVVL (listed as Homo sapiens) [VPS13B-001]
Donors (percentage in brackets) [2]: 100% | Donors [2]: ++++ (>70% = ++++) | Wells [2]: ++ (20%-49 % = ++)

SLYKGLLSV (listed as Homo sapiens) [RAD54B-001]
Donors (percentage in brackets) [2]: 100% | Donors [2]: ++++ (>70% = ++++) | Wells [2]: ++ (20%-49 % = ++)

TLLAAEFLKQV (listed as Homo sapiens) [CCT-001]
Donors [2]: +++ (50%-70% = +++) | Wells [2]: + (<20% = +)

TLTNIIHNL (listed as Homo sapiens) [ORMDL1-002]
Donors [2]: +++ (50%-70% = +++) | Wells [2]: + (<20% = +)

TLWYRAPEV (listed as Homo sapiens) [CDK4-001]
Donors [2]: ++++ (>70% = ++++) | Wells [2]: ++ (20%-49 % = ++)

TMLARLASA (listed as Homo sapiens) [CSP-001]
Donors [2]: +++ (50%-70% = +++) | Wells [2]: + (<20% = +)

TMMSRPPVL (listed as Homo sapiens) [WLS-002]
Donors [2]: +++ (50%-70% = +++) | Wells [2]: + (<20% = +)

VLCGPPPAV (listed as Homo sapiens) [NC AN-001]
Donors (percentage in brackets) [2]: 100% | Donors [2]: ++++ (>70% = ++++) | Wells [2]: + (<20% = +)

VLIQDVPTL (listed as Homo sapiens) [GRI-002]
Donors [2]: ++ (20%-49 % = ++) | Wells [2]: + (<20% = +)

YLPTFFLTV (listed as Homo sapiens) [ELOVL2-001]
Donors [2]: ++++ (>70% = ++++) | Wells [2]: + (<20% = +)

YQDPHSTAV (listed as Homo sapiens) [EGFR-008]
Donors [2]: ++ (20%-49 % = ++) | Wells [2]: + (<20% = +)
